# Source: PubChem BioAssay (NCI)
# “And” between values parts separate entries of the source, which are not always exact repeats. Equal values may be shown once.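 The compound was tested at five concentrations on cells cultured in 96-well plates, with a 48-hour exposure period. The concentration for 50% growth inhibition is given as GI50. The concentration for full growth arrest is given as TGI.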
# Assays:
# Assay in all cases: NCI tumour cell line growth inhibition, 48 h
# 786-0 renal = system: 786-0 renal
# A498 renal = system: A498 renal
# ACHN renal = system: ACHN renal
# BT-549 breast = system: BT-549 breast
# CAKI-1 renal = system: CAKI-1 renal
# CCRF-CEM leukemia = system: CCRF-CEM leukemia
# COLO 205 colon = system: COLO 205 colon
# DLD-1 colon = system: DLD-1 colon
# DMS 114 small cell lung = system: DMS 114 small cell lung
# DMS 273 small cell lung = system: DMS 273 small cell lung
# DU-145 prostate = system: DU-145 prostate
# EKVX NSCLC = system: EKVX NSCLC
# HCT-15 colon = system: HCT-15 colon
# HOP-18 NSCLC = system: HOP-18 NSCLC
# HOP-62 NSCLC = system: HOP-62 NSCLC
# HS 578T breast = system: HS 578T breast
# HT29 colon = system: HT29 colon
# IGROV1 ovarian = system: IGROV1 ovarian
# K-562 leukemia = system: K-562 leukemia
# KM12 colon = system: KM12 colon
# KM20L2 colon = system: KM20L2 colon
# M14 melanoma = system: M14 melanoma
# M19-MEL melanoma = system: M19-MEL melanoma
# MDA-MB-231 breast = system: MDA-MB-231 breast
# MDA-MB-435 = system: MDA-MB-435
# MDA-N = system: MDA-N
# MOLT-4 leukemia = system: MOLT-4 leukemia
# NCI-H226 lung = system: NCI-H226 lung
# NCI-H23 lung = system: NCI-H23 lung
# NCI-H460 lung = system: NCI-H460 lung
# NCI-H522 lung = system: NCI-H522 lung
# OVCAR-3 ovarian = system: OVCAR-3 ovarian
# OVCAR-5 ovarian = system: OVCAR-5 ovarian
# OVCAR-8 ovarian = system: OVCAR-8 ovarian
# P388 leukemia = system: P388 leukemia
# P388/ADR leukemia = system: P388/ADR leukemia
# PC-3 prostate = system: PC-3 prostate
# RPMI-8226 leukemia = system: RPMI-8226 leukemia
# RXF 393 renal = system: RXF 393 renal
# SF-268 CNS = system: SF-268 CNS
# SF-295 CNS = system: SF-295 CNS
# SF-539 CNS = system: SF-539 CNS
# SK-MEL-2 melanoma = system: SK-MEL-2 melanoma
# SK-MEL-28 melanoma = system: SK-MEL-28 melanoma
# SK-MEL-5 melanoma = system: SK-MEL-5 melanoma
# SN12K1 renal = system: SN12K1 renal
# SNB-19 CNS = system: SNB-19 CNS
# SNB-75 CNS = system: SNB-75 CNS
# SNB-78 CNS = system: SNB-78 CNS
# SR leukemia = system: SR leukemia
# SW-620 colon = system: SW-620 colon
# T-47D breast = system: T-47D breast
# TK-10 renal = system: TK-10 renal
# U251 CNS = system: U251 CNS
# UACC-257 melanoma = system: UACC-257 melanoma
# UACC-62 melanoma = system: UACC-62 melanoma
# XF 498 CNS = system: XF 498 CNS
# A549 NSCLC = system: A549 NSCLC
# HCC-2998 colon = system: HCC-2998 colon
# HCT-116 colon = system: HCT-116 colon
# LOX IMVI melanoma = system: LOX IMVI melanoma
# LXFL 529 NSCLC = system: LXFL 529 NSCLC
# MALME-3M melanoma = system: MALME-3M melanoma
# OVCAR-4 ovarian = system: OVCAR-4 ovarian
# RXF-631 renal = system: RXF-631 renal
# SK-OV-3 ovarian = system: SK-OV-3 ovarian
# SN12C renal = system: SN12C renal
# UO-31 renal = system: UO-31 renal
# HL-60(TB) leukemia = system: HL-60(TB) leukemia
# HOP-92 NSCLC = system: HOP-92 NSCLC
smiles,measurement,setting,value
Nc1ccn([C@@H]2C=C(CO)[C@@H](O)[C@H]2O)c(=O)n1,GI50,786-0 renal,0.257 µM
same,TGI,786-0 renal,500 µM
same,GI50,A498 renal,0.242 µM
same,GI50,ACHN renal,0.05 µM
same,TGI,ACHN renal,500 µM
same,TGI,BT-549 breast,113 µM
same,TGI,CAKI-1 renal,4.52 µM and 4.16 µM and 22.2 µM
same,TGI,CCRF-CEM leukemia,294 µM and > 625 µM
same,GI50,COLO 205 colon,0.0295 µM
same,GI50,DLD-1 colon,0.0625 µM
same,TGI,DLD-1 colon,500 µM and > 625 µM
same,GI50,DMS 114 small cell lung,0.0677 µM
same,TGI,DMS 114 small cell lung,449 µM and > 625 µM
same,TGI,DMS 273 small cell lung,218 µM and 62.5 µM
same,GI50,DU-145 prostate,0.05 µM
same,TGI,DU-145 prostate,500 µM
same,GI50,EKVX NSCLC,2.77 µM
same,TGI,EKVX NSCLC,134 µM
same,TGI,HCT-15 colon,483 µM and > 625 µM
same,TGI,HOP-18 NSCLC,500 µM
same,GI50,HOP-62 NSCLC,0.0593 µM and 0.0749 µM
same,GI50,HS 578T breast,4.56 µM
same,TGI,HT29 colon,394 µM and > 625 µM
same,TGI,IGROV1 ovarian,222 µM and > 625 µM
same,GI50,K-562 leukemia,0.0189 µM
same,TGI,K-562 leukemia,335 µM
same,GI50,KM12 colon,0.16 µM and 0.0625 µM
same,TGI,KM12 colon,500 µM and > 625 µM
same,TGI,KM20L2 colon,500 µM and > 625 µM
same,GI50,M14 melanoma,0.329 µM
same,GI50,M19-MEL melanoma,0.275 µM
same,TGI,M19-MEL melanoma,244 µM and > 625 µM
same,GI50,MDA-MB-231 breast,0.413 µM
same,TGI,MDA-MB-231 breast,500 µM
same,GI50,MDA-MB-435,0.0377 µM
same,TGI,MDA-MB-435,500 µM
same,GI50,MDA-N,0.05 µM
same,TGI,MDA-N,500 µM
same,GI50,MOLT-4 leukemia,0.0171 µM
same,GI50,NCI-H226 lung,0.501 µM
same,TGI,NCI-H226 lung,493 µM
same,GI50,NCI-H23 lung,0.114 µM
same,TGI,NCI-H460 lung,2.27 µM and 9.48 µM and 8.82 µM
same,GI50,NCI-H522 lung,0.0242 µM
same,TGI,OVCAR-3 ovarian,500 µM and > 625 µM
same,GI50,OVCAR-5 ovarian,0.13 µM
same,TGI,OVCAR-8 ovarian,67 µM and > 625 µM
same,TGI,P388 leukemia,1.84 µM
same,TGI,P388/ADR leukemia,2.19 µM
same,TGI,PC-3 prostate,500 µM
same,GI50,RPMI-8226 leukemia,0.0128 µM and 0.0635 µM and 0.126 µM
same,TGI,RXF 393 renal,201 µM and 44.8 µM
same,TGI,SF-268 CNS,500 µM and > 625 µM
same,TGI,SF-295 CNS,316 µM and > 625 µM
same,TGI,SF-539 CNS,266 µM and > 625 µM
same,TGI,SK-MEL-2 melanoma,346 µM and 301 µM
same,TGI,SK-MEL-28 melanoma,500 µM and > 625 µM
same,TGI,SK-MEL-5 melanoma,406 µM and 379 µM
same,GI50,SN12K1 renal,0.0625 µM
same,TGI,SN12K1 renal,83.8 µM and 160 µM
same,TGI,SNB-19 CNS,500 µM and > 625 µM
same,TGI,SNB-75 CNS,128 µM and > 625 µM
same,GI50,SNB-78 CNS,63.6 µM
same,TGI,SNB-78 CNS,156 µM and > 625 µM
same,GI50,SR leukemia,0.05 µM
same,TGI,SW-620 colon,303 µM and > 625 µM
same,GI50,T-47D breast,0.581 µM
same,TGI,T-47D breast,261 µM
same,GI50,TK-10 renal,0.184 µM
same,TGI,TK-10 renal,431 µM
same,TGI,U251 CNS,500 µM and > 625 µM
same,GI50,UACC-257 melanoma,2.97 µM and 1.12 µM
same,TGI,UACC-257 melanoma,470 µM
same,TGI,UACC-62 melanoma,135 µM and 224 µM
same,GI50,XF 498 CNS,< 0.0625 µM
COC(=O)C(=O)C(C(=O)C(=O)Nc1cc([N+](=O)[O-])ccc1[N+](=O)[O-])c1nc2ccc(C(=O)c3ccccc3)cc2[nH]c1=O (configuration not stated),TGI,786-0 renal,> 100 µM
same,TGI,A498 renal,63.4 µM
same,TGI,A549 NSCLC,> 100 µM
same,TGI,ACHN renal,> 100 µM
same,TGI,CAKI-1 renal,> 100 µM
same,TGI,CCRF-CEM leukemia,83.4 µM
same,TGI,COLO 205 colon,> 100 µM
same,TGI,DLD-1 colon,> 100 µM
same,TGI,DMS 114 small cell lung,66.5 µM
same,TGI,DMS 273 small cell lung,> 100 µM
same,TGI,EKVX NSCLC,> 100 µM
same,TGI,HCC-2998 colon,> 100 µM
same,TGI,HCT-116 colon,> 100 µM
same,TGI,HCT-15 colon,> 100 µM
same,TGI,HOP-18 NSCLC,95.1 µM
same,TGI,HOP-62 NSCLC,> 100 µM
same,TGI,HT29 colon,> 100 µM
same,TGI,IGROV1 ovarian,> 100 µM
same,TGI,K-562 leukemia,91.3 µM
same,TGI,KM12 colon,> 100 µM
same,TGI,LOX IMVI melanoma,> 100 µM
same,TGI,LXFL 529 NSCLC,57.9 µM
same,TGI,M14 melanoma,98.8 µM
same,TGI,M19-MEL melanoma,> 100 µM
same,TGI,MALME-3M melanoma,> 100 µM
same,TGI,MOLT-4 leukemia,61.5 µM
same,TGI,NCI-H226 lung,89 µM
same,TGI,NCI-H23 lung,70.4 µM
same,TGI,NCI-H460 lung,> 100 µM
same,TGI,NCI-H522 lung,70.6 µM
same,TGI,OVCAR-3 ovarian,> 100 µM
same,TGI,OVCAR-4 ovarian,> 100 µM
same,TGI,OVCAR-5 ovarian,70.5 µM
same,TGI,OVCAR-8 ovarian,> 100 µM
same,TGI,RPMI-8226 leukemia,62.4 µM
same,TGI,RXF-631 renal,> 100 µM
same,TGI,SF-268 CNS,> 100 µM
same,TGI,SF-295 CNS,> 100 µM
same,TGI,SF-539 CNS,> 100 µM
same,TGI,SK-MEL-2 melanoma,> 100 µM
same,TGI,SK-MEL-5 melanoma,45.9 µM
same,TGI,SK-OV-3 ovarian,> 100 µM
same,TGI,SN12C renal,> 100 µM
same,TGI,SNB-19 CNS,> 100 µM
same,TGI,SNB-78 CNS,58.6 µM
same,TGI,SR leukemia,60.2 µM
same,TGI,SW-620 colon,> 100 µM
same,TGI,U251 CNS,> 100 µM
same,TGI,UACC-257 melanoma,> 100 µM
same,TGI,UO-31 renal,67.5 µM
same,TGI,XF 498 CNS,30.9 µM
CNC1C(O)CC(OC2C/C=C(\C)C/C(C)=C/C=C/CCC(C)CNC(=O)/C=C/C=C/C2C)OC1C (configuration not stated),TGI,786-0 renal,0.294 µM
same,TGI,A498 renal,3.24 µM
same,TGI,ACHN renal,2.85 µM
same,TGI,BT-549 breast,2.58 µM
same,TGI,CAKI-1 renal,1.6 µM
same,TGI,CCRF-CEM leukemia,0.758 µM
same,TGI,COLO 205 colon,0.679 µM
same,TGI,DLD-1 colon,1.45 µM
same,TGI,DMS 114 small cell lung,0.402 µM
same,TGI,DU-145 prostate,2.79 µM
same,TGI,EKVX NSCLC,3 µM
same,TGI,HCC-2998 colon,1.42 µM
same,TGI,HCT-116 colon,0.324 µM
same,TGI,HCT-15 colon,0.531 µM
same,TGI,HL-60(TB) leukemia,0.37 µM
same,TGI,HOP-18 NSCLC,3.08 µM
same,TGI,HOP-92 NSCLC,2.11 µM
same,TGI,HS 578T breast,1.85 µM
same,TGI,HT29 colon,0.504 µM
same,TGI,IGROV1 ovarian,2.58 µM
same,TGI,K-562 leukemia,0.184 µM
same,TGI,KM12 colon,1.02 µM
same,TGI,LOX IMVI melanoma,0.263 µM
same,TGI,LXFL 529 NSCLC,0.308 µM
same,TGI,M14 melanoma,0.773 µM
same,TGI,M19-MEL melanoma,1.68 µM
same,TGI,MALME-3M melanoma,3 µM
same,TGI,MDA-MB-231 breast,2.91 µM
same,TGI,MDA-MB-435,0.82 µM
same,TGI,MDA-N,0.367 µM
same,TGI,NCI-H226 lung,43.8 µM
same,TGI,NCI-H23 lung,2.62 µM
same,TGI,NCI-H460 lung,0.317 µM
same,TGI,NCI-H522 lung,2.81 µM
same,TGI,OVCAR-3 ovarian,1.78 µM
same,TGI,OVCAR-4 ovarian,0.668 µM
same,TGI,OVCAR-5 ovarian,2.53 µM
same,TGI,OVCAR-8 ovarian,1.18 µM
same,TGI,PC-3 prostate,2.07 µM
same,TGI,RPMI-8226 leukemia,0.548 µM
same,TGI,RXF 393 renal,2.43 µM
same,TGI,RXF-631 renal,0.401 µM
same,TGI,SF-268 CNS,1.78 µM
same,TGI,SF-295 CNS,0.682 µM
same,TGI,SF-539 CNS,3.14 µM
same,TGI,SK-MEL-2 melanoma,2.82 µM
same,TGI,SK-MEL-28 melanoma,2.97 µM
same,TGI,SK-MEL-5 melanoma,1.22 µM
same,TGI,SK-OV-3 ovarian,3.27 µM
same,TGI,SN12C renal,1.94 µM
same,TGI,SNB-19 CNS,8.31 µM
same,TGI,SNB-75 CNS,2.91 µM
same,TGI,SNB-78 CNS,3.43 µM
same,TGI,SW-620 colon,0.261 µM
same,TGI,T-47D breast,3.18 µM
same,TGI,TK-10 renal,3.17 µM
same,TGI,U251 CNS,1.03 µM
same,TGI,UACC-257 melanoma,1.65 µM
same,TGI,UACC-62 melanoma,0.855 µM
same,TGI,UO-31 renal,5.85 µM
same,TGI,XF 498 CNS,3.76 µM
